In ChEMBL document CHEMBL5331139, “First-in-Class Dual Targeting Compounds for the Management of Seizures in Glucose Transporter Type 1 Deficiency Syndrome” (J Med Chem, 2023):

Tests used:
[1] = in vivo; settings: C57BL/6, mouse, 300 mg/kg
Description: Toxicity in MES induced C57BL/6 mouse model assessed as animal death at 300 mg/kg

[2] = target: Carbonic anhydrase 2 (Homo sapiens, UniProt P00918)
Description: Binding affinity to human recombinant carbonic anhydrase 2 assessed as inhibition constant incubated for 15 mins by phenol red based stopped-flow CO2 hydration assay

[3] = target: Carbonic anhydrase 12 (Homo sapiens, UniProt O43570)
Description: Binding affinity to human recombinant carbonic anhydrase 12 assessed as inhibition constant incubated for 15 mins by phenol red based stopped-flow CO2 hydration assay

[4] = target: Carbonic anhydrase 7 (Homo sapiens, UniProt P43166)
Description: Binding affinity to human recombinant carbonic anhydrase 7 assessed as inhibition constant incubated for 15 mins by phenol red based stopped-flow CO2 hydration assay

[5] = target: Carbonic anhydrase 5A, mitochondrial (Homo sapiens, UniProt P35218)
Description: Binding affinity to human recombinant carbonic anhydrase 5A assessed as inhibition constant incubated for 15 mins by phenol red based stopped-flow CO2 hydration assay

[6] = target: Carbonic anhydrase 5B, mitochondrial (Homo sapiens, UniProt Q9Y2D0)
Description: Binding affinity to human recombinant carbonic anhydrase 5B assessed as inhibition constant incubated for 15 mins by phenol red based stopped-flow CO2 hydration assay

[7] = target: Carbonic anhydrase 4 (Homo sapiens, UniProt P22748)
Description: Binding affinity to human recombinant carbonic anhydrase 4 assessed as inhibition constant incubated for 15 mins by phenol red based stopped-flow CO2 hydration assay

[8] = target: Carbonic anhydrase 1 (Homo sapiens, UniProt P00915)
Description: Binding affinity to human recombinant carbonic anhydrase 1 assessed as inhibition constant incubated for 15 mins by phenol red based stopped-flow CO2 hydration assay

[9] = in vivo; settings: C57BL/6, mouse, 200 mg/kg
Description: Toxicity in MES induced C57BL/6 mouse model assessed as mortality at 200 mg/kg

Carbonic anhydrase 1, sequence (P00915 whole entry): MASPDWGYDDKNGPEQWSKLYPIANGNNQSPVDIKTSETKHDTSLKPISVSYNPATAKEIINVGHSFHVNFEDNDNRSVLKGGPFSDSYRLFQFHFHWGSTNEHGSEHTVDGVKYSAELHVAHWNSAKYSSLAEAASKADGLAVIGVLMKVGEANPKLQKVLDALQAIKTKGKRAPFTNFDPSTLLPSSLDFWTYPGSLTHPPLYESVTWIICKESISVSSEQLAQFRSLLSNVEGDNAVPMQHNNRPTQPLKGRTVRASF
Carbonic anhydrase 5A, mitochondrial, sequence (P35218 whole entry): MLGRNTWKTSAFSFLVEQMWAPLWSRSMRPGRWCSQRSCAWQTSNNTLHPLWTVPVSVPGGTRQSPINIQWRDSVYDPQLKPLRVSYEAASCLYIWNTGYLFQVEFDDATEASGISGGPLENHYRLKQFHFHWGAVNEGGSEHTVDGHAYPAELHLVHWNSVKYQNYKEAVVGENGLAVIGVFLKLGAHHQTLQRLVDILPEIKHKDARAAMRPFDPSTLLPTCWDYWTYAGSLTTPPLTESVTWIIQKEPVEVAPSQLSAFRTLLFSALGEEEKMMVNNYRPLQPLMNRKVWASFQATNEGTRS
Carbonic anhydrase 7, sequence (P43166 whole entry): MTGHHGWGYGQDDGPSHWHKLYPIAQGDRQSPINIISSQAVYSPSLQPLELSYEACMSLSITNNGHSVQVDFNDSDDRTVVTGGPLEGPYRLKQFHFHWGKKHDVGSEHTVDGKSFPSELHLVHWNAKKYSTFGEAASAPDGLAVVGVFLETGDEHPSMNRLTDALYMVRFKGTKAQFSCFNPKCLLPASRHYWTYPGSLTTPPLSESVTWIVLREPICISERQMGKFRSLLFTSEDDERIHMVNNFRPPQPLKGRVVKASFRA
Carbonic anhydrase 4, sequence (P22748 whole entry): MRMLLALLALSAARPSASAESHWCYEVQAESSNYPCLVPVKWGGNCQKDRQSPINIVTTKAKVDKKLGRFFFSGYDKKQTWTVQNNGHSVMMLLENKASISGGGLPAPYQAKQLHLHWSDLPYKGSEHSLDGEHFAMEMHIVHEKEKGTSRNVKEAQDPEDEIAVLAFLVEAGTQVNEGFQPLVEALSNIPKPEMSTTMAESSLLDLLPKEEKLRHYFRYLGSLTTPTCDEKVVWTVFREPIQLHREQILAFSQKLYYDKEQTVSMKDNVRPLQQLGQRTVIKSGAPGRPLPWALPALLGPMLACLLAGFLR
Carbonic anhydrase 12, sequence (O43570 whole entry): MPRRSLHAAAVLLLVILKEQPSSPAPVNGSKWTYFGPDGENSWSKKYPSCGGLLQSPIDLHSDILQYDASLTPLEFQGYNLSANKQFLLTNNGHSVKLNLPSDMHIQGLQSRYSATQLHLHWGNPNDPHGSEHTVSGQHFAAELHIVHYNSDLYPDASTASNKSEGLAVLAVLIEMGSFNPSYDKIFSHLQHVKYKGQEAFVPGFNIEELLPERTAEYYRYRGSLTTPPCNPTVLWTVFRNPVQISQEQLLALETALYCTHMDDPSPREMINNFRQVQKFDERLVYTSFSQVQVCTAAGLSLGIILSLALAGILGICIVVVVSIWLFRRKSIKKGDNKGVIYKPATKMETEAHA
Carbonic anhydrase 5B, mitochondrial, sequence (Q9Y2D0 whole entry): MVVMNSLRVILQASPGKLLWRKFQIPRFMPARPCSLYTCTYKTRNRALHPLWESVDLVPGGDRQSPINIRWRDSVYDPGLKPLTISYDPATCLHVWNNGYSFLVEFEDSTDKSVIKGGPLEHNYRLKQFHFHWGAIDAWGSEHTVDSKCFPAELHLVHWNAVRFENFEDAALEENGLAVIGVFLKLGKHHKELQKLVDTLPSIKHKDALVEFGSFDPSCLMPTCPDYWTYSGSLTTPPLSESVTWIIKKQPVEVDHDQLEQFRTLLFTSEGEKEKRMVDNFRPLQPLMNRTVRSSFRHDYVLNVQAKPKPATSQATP

SMILES | mortality [1] [%] | Ki [2] [µM] | Ki [3] [µM] | Ki [4] [µM] | Ki [5] [µM] | Ki [6] [µM] | Ki [7] [µM] | Ki [8] [µM] | mortality [9] [%]
CC(=O)OC[C@H]1O[C@@H]([Se]c2ccc(S(N)(=O)=O)cc2)[C@H](OC(C)=O)[C@@H](OC(C)=O)[C@@H]1OC(C)=O | 20 | 0.0414 | 9.44 | 0.0146 | 0.596 | 0.707 | 4.12 | 0.0803 | –
NS(=O)(=O)c1ccc([Se][C@@H]2O[C@H](CO)[C@H](O)[C@H](O)[C@H]2O)cc1 | – | 0.0537 | 0.0824 | 0.0303 | 0.427 | 0.0087 | 0.58 | 0.647 | –
CC(=O)OC[C@H]1O[C@@H]([Se]c2ccc(NC(=O)c3ccc(S(N)(=O)=O)cc3)cc2)[C@H](OC(C)=O)[C@@H](OC(C)=O)[C@@H]1OC(C)=O | – | 0.0051 | 0.0094 | 0.0028 | 0.0906 | 0.0087 | 0.378 | 0.0852 | –
NS(=O)(=O)c1ccc([Se][C@@H]2O[C@H](CO)[C@@H](O)[C@H](O)[C@H]2O)cc1 | – | 0.0138 | 0.589 | 0.263 | 0.325 | 0.0873 | 0.647 | 0.541 | –
CC(=O)O[C@H]1[C@@H](OC(C)=O)[C@@H](CO)O[C@@H]([Se]c2ccc(S(N)(=O)=O)cc2)[C@@H]1OC(C)=O | – | 0.0172 | 0.0423 | 0.0008 | 0.0968 | 0.0026 | 0.146 | 0.0862 | –
NS(=O)(=O)c1ccc(C(=O)Nc2ccc([Se][C@@H]3O[C@H](CO)[C@H](O)[C@H](O)[C@H]3O)cc2)cc1 | – | 0.0017 | 0.0905 | 0.0096 | 0.12 | 0.088 | 0.348 | 0.048 | –
Nc1cc([Se][C@@H]2O[C@H](CO)[C@@H](O)[C@H](O)[C@H]2O)ccc1S(N)(=O)=O | – | 4.01 | 2.56 | > 10 | 2.3 | > 10 | > 10 | 7.68 | –
CC(=O)OC[C@H]1O[C@@H]([Se]c2ccc(NC(=O)c3ccc(S(N)(=O)=O)cc3)cc2)[C@H](OC(C)=O)[C@@H](OC(C)=O)[C@H]1OC(C)=O | – | 0.004 | 0.0056 | 0.0007 | 0.0574 | 0.004 | 0.0308 | 0.0514 | –
CC(=O)OC[C@H]1O[C@@H]([Se]c2ccc(NC(=O)c3ccc(Cl)c(S(N)(=O)=O)c3)cc2)[C@H](OC(C)=O)[C@@H](OC(C)=O)[C@@H]1OC(C)=O | – | 0.214 | > 10 | 0.0873 | 0.348 | 0.0409 | 1.57 | > 10 | –
NS(=O)(=O)c1ccc(C(=O)Nc2ccc([Se][C@@H]3O[C@H](CO)[C@@H](O)[C@H](O)[C@H]3O)cc2)cc1 | – | 0.0061 | 0.0072 | 0.0009 | 0.0451 | 0.003 | 0.0089 | 0.0464 | –
CC(=O)OC[C@H]1O[C@@H]([Se]c2ccc(NC(=S)Nc3ccc(S(N)(=O)=O)cc3)cc2)[C@H](OC(C)=O)[C@@H](OC(C)=O)[C@H]1OC(C)=O | – | 0.0066 | 0.0342 | 0.002 | 0.482 | 0.0047 | 0.362 | 0.0481 | –
CC(=O)O[C@@H]1[C@@H](OC(C)=O)[C@H]([Se]c2ccc(S(N)(=O)=O)cc2)O[C@H](CO)[C@H]1OC(C)=O | – | 0.0037 | 0.0059 | 0.0041 | 0.736 | 0.0055 | 0.0671 | 0.0784 | –
CC(=O)OC[C@H]1O[C@@H]([Se]c2ccc(S(N)(=O)=O)c(N)c2)[C@H](OC(C)=O)[C@@H](OC(C)=O)[C@@H]1OC(C)=O | – | 6.29 | > 10 | > 10 | 2.54 | > 10 | > 10 | > 10 | –
NS(=O)(=O)c1cc(C(=O)Nc2ccc([Se][C@@H]3O[C@H](CO)[C@H](O)[C@H](O)[C@H]3O)cc2)ccc1Cl | – | 0.0148 | 0.0887 | 0.0297 | 0.215 | 0.0219 | 0.0777 | 0.637 | –
CC(=O)O[C@H]1[C@@H](OC(C)=O)[C@@H](CO)O[C@@H]([Se]c2ccc(S(N)(=O)=O)c(N)c2)[C@@H]1OC(C)=O | – | 6.66 | > 10 | > 10 | 0.236 | 0.172 | 7.28 | 6.82 | –
CC(=O)OC[C@H]1O[C@@H]([Se]c2ccc(NC(=S)Nc3ccc(S(N)(=O)=O)cc3)cc2)[C@H](OC(C)=O)[C@@H](OC(C)=O)[C@@H]1OC(C)=O | – | 0.0063 | 0.0558 | 0.0018 | 0.255 | 0.0089 | 0.555 | 0.0531 | –
NS(=O)(=O)c1ccc(S(=O)(=O)[C@@H]2O[C@H](CO)[C@@H](O)[C@H](O)[C@H]2O)cc1 | – | – | – | 0.0022 | – | 0.0042 | – | – | –
CC(=O)OC[C@H]1O[C@@H]([Se]c2ccc(S(N)(=O)=O)c(N)c2)[C@H](OC(C)=O)[C@@H](OC(C)=O)[C@H]1OC(C)=O | – | 6.32 | > 10 | > 10 | 6.57 | 0.406 | > 10 | 9.6 | –
CC(=O)OC[C@H]1O[C@@H]([Se]c2ccc(S(N)(=O)=O)cc2)[C@H](OC(C)=O)[C@@H](OC(C)=O)[C@H]1OC(C)=O | – | 0.0041 | 0.804 | 0.0005 | 0.0872 | 0.0066 | 0.344 | 0.0958 | –
NS(=O)(=O)c1ccc(NC(=S)Nc2ccc([Se][C@@H]3O[C@H](CO)C(O)[C@H](O)[C@H]3O)cc2)cc1 (single isomer, unassigned; 16a) | – | 0.0052 | 0.0198 | 0.0044 | 0.0705 | 0.0076 | 0.283 | 0.0714 | 30
NS(=O)(=O)c1ccc(NC(=S)Nc2ccc([Se][C@@H]3O[C@H](CO)C(O)[C@H](O)[C@H]3O)cc2)cc1 (single isomer, unassigned; 16b) | – | 0.0045 | 0.0091 | 0.0009 | 0.358 | 0.0062 | 0.0777 | 0.0415 | –
